# Data: patent US5110810A, “Method of using dehydroepiandrosterone and dehydroepiandrosterone-sulfate as inhibitors of platelet aggregation” (Virginia Commonwealth University, priority 1991, dated 1992)
# Read-outs that look alike come from different tables or passages of the source.
# Columns and labels:
# [1] = Serum DHEA and DHEA-S levels by radio-immunoassay (RIA), oral DHEA in normal male volunteers; format: in vivo; conditions: human, 300 mg/day, DHEA group, 300 mg per day orally (100 mg three times a day), second week, read-out: mean serum DHEA level
# Experimental: In vivo experimentation has been conducted with DHEA using a test group of ten male human being subjects. The in vivo experimentation comprised a double blind placebo controlled trial where ten normal male volunteers whose ages ranged between 22 and 37 years old were randomly divided into two five membered groups where the average age for each group was 25 years. In the in vivo experiment, the DHEA group received 300 mg of DHEA per day in the form of 100 mg capsules taken orally three times a day. The placebo group took placebo capsules which looked identical to the capsules containing DHEA three times a day. The DHEA and placebo capsules were prepared by the investigational pharmacy at the Medical College of Virginia and the code identifying which patients took DHEA and which took placebo was maintained by the pharmacy until the study was completed such that neither the patients nor the investigators were aware of who was taking DHEA or placebo. Each of the participants in the trial were told not to alter their lifestyles for the duration of the study and at the conclusion of the experiment each participant said that they had not done so. […]
# Serum DHEA and DHEA-S levels for the patients was determined before the experiment began and at several later times during the experiment. […]
# blood platelets = experiment: Arachidonic acid induced platelet aggregation (turbidimetric) in volunteers taking DHEA; format: in vivo, human
# Description: (§1) Referring now to the drawings and, more particularly to FIG. 1, two sample aggregometer tracings are shown which help illustrate the methods used by the inventors to analyze turbidimetric data. Aggregometers are well known research tools and the aggregometer used in the experiments discussed below was a Sienco dual chamber platelet aggregometer. A blood sample which is to be analyzed is drawn from volunteer donors into a 1/8 volume of acid-citrate-dextrose (an anticoagulant used to keep platelets from aggregation during preparative stages). For the in vitro experiments discussed below, the volunteer donors had not taken any medication for ten days prior to submitting the blood sample. The blood is then centrifuged at low speed to sediment red and white blood cells, leaving a fraction enriched in platelets called platelet-rich plasma (PRP). The platelet count was determined electronically using a Coulter counter The final concentration of platelets for a test sample was adjusted to 250,000 platelets/μL fluid by the addition of platelet-poor plasma.
# (§2) The aggregometer acts essentially like a spectrophotometer to measure the turbidity of the platelet suspension as a function of the change in light transmission recorded over time. Prior to making turbidimetric measurements, the test samples were heated to 37° C. (body temperature) and stirred at a constant rate. Inhibitors and/or agonists are added to the test sample in very small quantities so as to minimize the dilutional effect. An important object of the present invention was showing that DHEA and DHEA-S are inhibitors of platelet aggregation. Arachidonic acid, available from Biodata Corp of Hatboro, Pennsylvania, is a well known agonist of platelets (i.e., the addition of arachidonic acid to platelets causes aggregation). In the experiments, DHEA and DHEA-S were added to the test sample prior to adding the arachidonic acid so that the platelets could be mixed with the inhibitor before any aggregation initiation caused by the arachidonic acid agonist occurred. Typically, 0.2-0.4 mM arachidonic acid was used to start platelet aggregation.
# The aggregometer was calibrated such that the test samples, which contained 250,000 platelets/μl fluid, allowed 0% light transmission while Platelet Poor Plasma, which is essentially devoid of platelets, allowed 100% light transmission. […]
# The overall rate of aggregation is determined in part by the LAG time and in part by the rate of the rapid aggregation phase. While the LAG time can easily be determined from the turbidimetric spectra, the rate of rapid aggregation phase is technically difficult to measure. […] Therefore, the experiments discussed below have primarily utilized the T1/2MAX measurement to quantitatively analyze the affect of DHEA and DHEA-S as platelet aggregation inhibitors. […]
# platelets [2] = experiment: In vitro turbidimetric arachidonic acid induced platelet aggregation in platelet rich plasma; format: cell-based, human
# Description: as §1, §2
# The aggregometer was calibrated such that the test samples, which contained 250,000 platelets/μl fluid, allowed 0% light transmission while Platelet Poor Plasma, which is essentially devoid of platelets, allowed 100% light transmission. […] The time to the nadir in the aggregometer tracing is called the "LAG" time. After the LAG time has passed, the platelets undergo a rapid phase of aggregation.
# The overall rate of aggregation is determined in part by the LAG time and in part by the rate of the rapid aggregation phase. While the LAG time can easily be determined from the turbidimetric spectra, the rate of rapid aggregation phase is technically difficult to measure. […] Therefore, the experiments discussed below have primarily utilized the T1/2MAX measurement to quantitatively analyze the affect of DHEA and DHEA-S as platelet aggregation inhibitors.
# DHEA-S is available from the Sigma Chemical Company in powder form. In the in vitro experiments, blood samples were taken from several young healthy donors taking no medications. Platelet rich plasma was prepared as described above for each test sample and the concentration of platelets in the test samples was adjusted to 250,000 platelets/μl fluid. Aggregation of the platelets in the test samples was initiated with 0.2 to 0.4 […] of arachidonic acid (there was a variability in the amount of arachidonic acid used among donors; however, the amount used was near the minimum that would consistently initiate aggregation). In all aggregation experiments 0.3 cc of platelet rich plasma was used and the test sample volume placed in the aggregometer ranged between 10 μl to 30 μl.
# In the first in vitro experiment, different concentrations of DHEA-S were added to test samples and the rate of aggregation was monitored after the addition of arachidonic acid. […]
# [3] = test system: Thromboxane A2 (TxA2) synthesis, measured as Thromboxane B2 (TxB2); experiment: Thromboxane production (TxB2 RIA) in platelet rich plasma after arachidonic acid; format: cell-based, human; conditions: for TxB2 produced: approximately three minutes incubation
# Description: As discussed above, activation of platelets by arachidonic acid typically results in the generation of Thromboxane A2 (TxA2) The extent of TxA2 generated can be measured by radioimmunoassay (RIA) of its stable breakdown product Thromboxane B2 (TxB2) (see, JW Aiken, "Arachidonic Acid Metabolism and the Cardiovascular System" in Platelets and Prostaglandins in Cardiovascular Disease, J Mehta, P Mehta eds. Futura Publishing Co., Mt. Kisco, NY 1981). […] The platelet aggregation reaction was terminated at maximal aggregation or at four minutes, which ever occurred […], by the addition of 10 μM Indomethacin and 5.0 mM ethylenediaminetetraacetic acid (EDTA). Indomethacin and EDTA are commercially available reagents and were obtained from the Sigma Chemical Company. After adding the Indomethacin and EDTA reagents, the cuvettes containing the test sample were immediately placed on ice to cool. The test samples were then spun at a high speed in an Epindorf, Model 5415 micro-centrifuge, available from Brinkman Instruments, to sediment the platelets. Afterwards, plasma was removed from each sample. The TXB2 content was then assayed using commercial RIA kits available from Advanced Magnetics, Inc. of Massachussetts.
# aortic fatty streaks = conditions: 0.5% cholesterol and 0.5% DHEA diet; two months; cited from earlier work
# atherosclerotic plaque = conditions: 2% cholesterol diet, balloon abrasion, 0.5% DHEA, cited from earlier work
# [4] = test system: glucose-6-phosphate dehydrogenase; conditions: cited from earlier work
# [5] = test system: oxidant injury in isolated rabbit lungs; conditions: cited from earlier work
# [6] = human patients; cited from earlier work
# intracellular sulfatases = conditions: through the action of intracellular sulfatases; cited from earlier work
# [7] = test system: cardiovascular disease mortality; conditions: increase in (endogenous) DHEA-S level of 100 μg/dL; adjusted for other risk factors; p <0.05; cited from earlier work
# myocardial infarction = conditions: large clinical studies; cited from earlier work
# platelets [8] = conditions: cited from earlier work
# platelets [9] = conditions: cited from earlier work; remark: listed apart in the source
smiles,measurement,setting,value
"C[C@]12CC[C@H](O)CC1=CC[C@@H]1[C@@H]2CC[C@]2(C)C(=O)CC[C@@H]12 [DHEA, dehydroepiandrosterone]",concentration at 336 h,[1],28.7 ± 13.9 ng/mL
same,"aggregation response, fifth DHEA patient",blood platelets; 300 mg DHEA per day orally,no change
same,"arachidonic acid induced platelet aggregation, one of the four responding subjects",blood platelets; 300 mg DHEA per day orally,completely inhibited
same,patients who developed a delay in the rate of aggregation or an increase in the minimal concentration of arachidonic acid required to initiate aggregation,blood platelets; 300 mg DHEA per day orally,four of the five patients
same,T1/2MAX and LAG curves vs arachidonic acid concentration,"blood platelets; one DHEA treated patient, second week vs baseline (FIG. 3)",shifted to the right and upward
same,platelet aggregation on pre-incubation,"platelets [2]; 3.3 μM, pre-incubation 0 to 5.0 minutes (FIG. 6)",prolong and eventually inhibit platelet aggregation
same,TxB2 produced,[3]; 3.3 μM DHEA,46.0 ± 4.0 pg/mL
same,TxB2 produced,[3]; 6.7 μM DHEA,27.3 ± 1.1 pg/mL
same,TxB2 produced,[3]; 10.0 μM DHEA,21.8 ± 1.8 pg/mL
same,TxB2 produced vs concentration,[3]; increasing concentrations of DHEA (FIG. 7),proportional decline in TxB2 produced
same,TxA2 synthesis,[3]; presence of added DHEA (FIG. 7),net inhibition of TxA2 synthesis
same,"reduction in fatty streak formation, chemical analysis",aortic fatty streaks,30%
same,"reduction in fatty streak formation, planimetry of the lesions",aortic fatty streaks,40%
same,individual reduction of plaque size vs serum level of DHEA,atherosclerotic plaque,inversely proportional to the serum level of DHEA attained
same,reduction in plaque size,atherosclerotic plaque; vs rabbits not receiving DHEA,50%
same,inhibition of glucose-6-phosphate dehydrogenase,[4],specific inhibitor
same,thromboxane B2 production,[5],unchanged
same,lung edema and pulmonary hypertension,[5]; platelets pretreated with DHEA,augmentation of the lung edema and pulmonary hypertension
same,HDL cholesterol levels,[6],without affecting HDL cholesterol levels
same,LDL cholesterol levels,[6],lower LDL cholesterol levels
same,body fat mass,[6],reduce body fat mass
same,muscle mass,[6],increase muscle mass
same,serum apilipoprotein B levels,[6],lower serum apilipoprotein B levels
same,tissue sensitivity to insulin,[6],not affect tissue sensitivity to insulin
same,interconversion of DHEA with its sulfate ester,intracellular sulfatases,readily interconvertible
"CC12CCC3C(CC=C4CC(OS(=O)(=O)O)CCC43C)C1CCC2=O (stereo not drawn) [DHEA-S, dehydroepiandrosterone-sulfate]",T1/2MAX and LAG vs pre-incubation time,platelets [2]; 3.3 μM DHEA-S (FIG. 5),the greater the increase in T1/2MAX and LAG times
same,T1/2MAX and LAG vs baseline,"platelets [2]; 3.3 μM DHEA-S, 0 time pre-incubation (FIG. 5)",did increase the T1/2MAX and LAG from baseline
same,aggregation after 5.0 minute pre-incubation,"platelets [2]; 3.3 μM DHEA-S, 5.0 minutes, in most cases (FIG. 6)",complete inhibition of aggregation
same,time for T1/2MAX and LAG,"platelets [2]; 10.0 μM DHEA-S, three minutes incubation",not determinable
same,platelet aggregation response to increasing DHEA-S concentration,"platelets [2]; incubated three minutes before arachidonic acid, most test samples",dose dependent response
same,T1/2MAX and LAG times with increasing concentrations,platelets [2]; three minutes incubation (FIG. 4),increase with increasing concentrations of DHEA-S
same,thromboxane production,[3]; treatment of blood with DHEA-S,reduce thromboxane production
same,reduction in mortality from cardiovascular disease,[7],48%
CC(=O)Oc1ccccc1C(=O)O [aspirin],incidence of myocardial infarction,myocardial infarction,reduce the incidence of myocardial infarction
same,initial platelet adhesion,platelets [8],does not inhibit initial platelet adhesion
same,platelet's role in atherogenesis,platelets [8],does not appear to have an affect
"O=[N+]([O-])c1cc(Cl)cc([N+](=O)[O-])c1 [CDNB, 1-chloro-3,5-dinitrobenzene]",GSH content of platelets,platelets [9],chemically depletes GSH
same,HMPS pathway stimulation by GSH-depleted platelets,platelets [9],do not stimulate the HMPS pathway
same,cytoskeletal protein polymerization of GSH-depleted platelets,platelets [9],faster cytoskeletal protein oxidative polymerization but reversible aggregation
same,sensitivity of GSH-depleted platelets to oxidants,platelets [9],more sensitive to oxidants
same,aggregation of GSH-depleted platelets,platelets [9]; higher inducer concentrations,aggregate normally
same,aggregation of GSH-depleted platelets,"platelets [9]; low inducer concentrations, depending on the inducer",increased or depressed aggregation
